Read-outs that look alike come from different tables or passages of the source.
Tests used:
[1] = system: Key Broadleaf Weed and Crop Species; experiment: Post-emergent Test II herbicidal activity (Table 5); assay type: in vivo; conditions: post-emergence, 336 h, post-emergent, 14 days after application; for pest or weed control at 66 g/ha: 66 g ai/ha; for pest or weed control at 132 g/ha: 132 g ai/ha
Procedure, shortened: (§1)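 Percent injury, 0 (none) to 100 (complete kill), was judged visually 14 d after spraying young plants at the first or second true leaf stage with compound in an acetone/DMSO aqueous carrier at 187 L/ha. Plants were kept in a greenhouse at 23–29 °C by day.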

[2] = system: Key Grass and Sedge Weeds as well as Grass Crops; experiment: Post-emergent Test II herbicidal activity (Table 6); assay type: in vivo; conditions: post-emergence, 336 h; for pest or weed control at 66 g/ha: application rate 66 g ai/ha; for pest or weed control at 132 g/ha: application rate 132 g ai/ha
Procedure, shortened: as §1

[3] = ABUTH: velvetleaf (Abutilon theophrasti), read-out: Visual Growth Reduction (%) 14 Days After Application ABUTH
[4] = AMARE: redroot pigweed (Amaranthus retroflexus), read-out: Visual Growth Reduction (%) 14 Days After Application AMARE
[5] = BRSNN: oilseed-rape, canola (Brassica napus), read-out: Visual Growth Reduction (%) 14 Days After Application BRSNN
[6] = CHEAL: lambsquarters (Chenopodium album), read-out: Visual Growth Reduction (%) 14 Days After Application CHEAL
[7] = EPHHL: wild poinsettia (Euphorbia heterophylla), read-out: Visual Growth Reduction (%) 14 Days After Application EPHHL
[8] = HELAN: sunflower (Helianthus annuus), read-out: Visual Growth Reduction (%) 14 Days After Application HELAN
[9] = VIOTR: wild pansy (Viola tricolor), read-out: Visual Growth Reduction (%) 14 Days After Application VIOTR
[10] = Triticum aestivum, TRZSS (wheat), read-out: Visual Growth Reduction (%) 14 Days After Application, TRZSS
[11] = CYPES: yellow nutsedge (Cyperus esculentus), read-out: Visual Growth Reduction (%) 14 Days After Application, CYPES
[12] = DIGSA: crabgrass (Digitaria sanguinalis), read-out: Visual Growth Reduction (%) 14 Days After Application, DIGSA
[13] = ECHCG: barnyardgrass (Echinochloa crus-galli), read-out: Visual Growth Reduction (%) 14 Days After Application, ECHCG
[14] = ORYSA: rice (Oryza sativa), read-out: Visual Growth Reduction (%) 14 Days After Application, ORYSA
[15] = SETFA: giant foxtail (Setaria faberi), read-out: Visual Growth Reduction (%) 14 Days After Application, SETFA
[16] = SORVU: grain sorghum (Sorghum vulgare), read-out: Visual Growth Reduction (%) 14 Days After Application, SORVU
[17] = ZEAMX: maize, corn (Zea mays), read-out: Visual Growth Reduction (%) 14 Days After Application, ZEAMX

Compound COC(=O)c1nc(-c2ccc(I)c(F)c2)c(C)c(N)c1Cl [Compound 79, Methyl 4-amino-3-chloro-6-(3-fluoro-4-iodophenyl)-5-methylpicolinate] has a pest or weed control at 66 g/ha [1, 3] of 85 to 94%, a pest or weed control at 132 g/ha [1, 3] of 95 to 100% and a pest or weed control at 66 g/ha [1, 4] of 60 to 74%. It also gave a pest or weed control at 132 g/ha [1, 4] of 75 to 84%, a pest or weed control at 66 g/ha [1, 5] of 85 to 94% and a pest or weed control at 132 g/ha [1, 5] of 85 to 94%. The pest or weed control at 66 g/ha [1, 6] was 95 to 100%, the pest or weed control at 132 g/ha [1, 6] was 95 to 100% and the pest or weed control at 66 g/ha [1, 7] was 0 to 29%. It also gave a pest or weed control at 132 g/ha [1, 7] of 0 to 29%, a pest or weed control at 66 g/ha [1, 8] of 95 to 100% and a pest or weed control at 132 g/ha [1, 8] of 95 to 100%. For the same compound, the pest or weed control at 66 g/ha [1, 9] was 0 to 29%, the pest or weed control at 132 g/ha [1, 9] was 0 to 29% and the pest or weed control at 66 g/ha [2, 10] was 0 to 29%. For the same compound, the pest or weed control at 132 g/ha [2, 10] was 30 to 44%, the pest or weed control at 66 g/ha [2, 11] was 95 to 100% and the pest or weed control at 132 g/ha [2, 11] was 95 to 100%. For the same compound, the pest or weed control at 66 g/ha [2, 12] was 60 to 74%, the pest or weed control at 132 g/ha [2, 12] was 60 to 74% and the pest or weed control at 66 g/ha [2, 13] was 60 to 74%. For the same compound, the pest or weed control at 132 g/ha [2, 13] was 60 to 74%, the pest or weed control at 66 g/ha [2, 14] was 0 to 29% and the pest or weed control at 132 g/ha [2, 14] was 0 to 29%. The pest or weed control at 66 g/ha [2, 15] was 75 to 84%, the pest or weed control at 132 g/ha [2, 15] was 75 to 84% and the pest or weed control at 66 g/ha [2, 16] was 60 to 74%. The pest or weed control at 132 g/ha [2, 16] was 75 to 84%, the pest or weed control at 66 g/ha [2, 17] was 60 to 74% and the pest or weed control at 132 g/ha [2, 17] was 60 to 74%. It also gave a melting point of 121 to 124 °C.

From patent publication US9113629B2, “4-amino-6-(4-substituted-phenyl)-picolinates and 6-amino-2-(4-substituted-phenyl)-pyrimidine-4-carboxylates and their use as herbicides” (DOW AGROSCIENCES LLC, priority 2013, dated 2015)
